Results as given in publication PMC11125359 (Pharmaceuticals, 2024).

Assays:
[1] = target: bovine serum albumin (BSA) (Bos taurus, UniProt P02769); details: equal concentrations (1000 µg/mL); mean ± SE
[2] = test system: α-glucosidase; experiment: α-Glucosidase inhibition (anti-diabetic); type: biochemical; details: equal concentrations (1000 µg/mL); mean ± SE
[3] = target: acetylcholinesterase (AChE) (Homo sapiens, UniProt P22303); experiment: biochemical; details: same concentration (1000 µg/mL); mean ± SE
Chain of acetylcholinesterase (AChE) (P22303 32-614, species assumed): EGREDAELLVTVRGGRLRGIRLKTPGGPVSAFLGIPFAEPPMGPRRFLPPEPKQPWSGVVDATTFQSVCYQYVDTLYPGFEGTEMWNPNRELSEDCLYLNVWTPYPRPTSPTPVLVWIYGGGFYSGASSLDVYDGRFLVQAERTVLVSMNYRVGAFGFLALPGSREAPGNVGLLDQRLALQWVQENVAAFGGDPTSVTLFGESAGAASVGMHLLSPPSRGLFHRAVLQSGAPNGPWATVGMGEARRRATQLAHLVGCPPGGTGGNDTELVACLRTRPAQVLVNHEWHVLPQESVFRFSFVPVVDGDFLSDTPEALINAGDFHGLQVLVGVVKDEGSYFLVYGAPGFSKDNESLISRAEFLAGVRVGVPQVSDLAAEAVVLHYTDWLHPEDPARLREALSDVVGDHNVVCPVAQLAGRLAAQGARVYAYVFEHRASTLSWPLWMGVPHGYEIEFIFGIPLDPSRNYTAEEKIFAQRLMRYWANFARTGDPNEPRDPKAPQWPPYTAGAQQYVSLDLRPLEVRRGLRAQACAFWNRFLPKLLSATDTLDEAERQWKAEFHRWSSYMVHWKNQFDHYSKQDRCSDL

[4] = DPPH radical-scavenging activity; details: read-out: DPPH (IC50); mean ± SE, three replicates
Description: In vitro biological activities
(§1) The 1,1-Diphenyl-2-picryl-hydrazyl (DPPH) radical scavenging activities were evaluated using the method described by Rahman et al. An antioxidant substance capable of donating a
(§2) hydrogen atom to a solution containing DPPH- can reduce the stable free radical, causing the solution
(§3) to change color from violet to pale yellow. The remaining DPPH- radical was quantified by
(§4) nm using a spectroscopic method. Two milliliters of a DPPH solution (100 µM) in ethanol were mixed
(§5) with 2 mL of the sample (at each concentration). The reaction mixture for each concentration was
(§6) thoroughly vortexed and then incubated in the dark at room temperature for 30 minutes. The
(§7) absorbance was then measured spectrophotometrically at 518 nm against a blank (ethanol). For the
(§8) control, 2 mL of ethanol was added instead of the sample and run simultaneously with the test.
(§9) Ascorbic acid was used at the same concentrations as a positive control. Percent inhibition of the
(§10) DPPH free radical was calculated. The median inhibitory concentration (IC 50) for each tested

[5] = ABTS radical scavenging assay; details: equal concentrations (1000 µg/mL); mean ± SE
Description: (§11) All in vitro biological activities were assessed in the tested compounds at equal concentrations (1000 µg/mL). All assays were carried out in triplicate.
In vitro biological activities
(§12) The total antioxidant capacity (TAC) was determined by analyzing the green phosphate/Mo5+ complex at a wavelength (λ) of 695 nm, following the procedure described by Prieto
(§13) et al. Samples (at each concentration) were mixed with a reagent solution containing 0.3 N sulfuric
(§14) acid, 28 mM sodium phosphate, and 4 mM ammonium molybdate. Methanol (80%) was used in place
(§15) of the sample for the blank. The tubes were sealed and incubated in a boiling water bath for 90
(§16) minutes. After cooling to room temperature, the absorbance was measured at 695 nm against the
(§17) blank. Ascorbic acid was used at the same concentrations as a standard. The antioxidant capacity was
(§18) expressed as mg gallic acid equivalent per gram weight.
(§19) The iron reducing power was determined as µg/mL using the method proposed by Oyaizu
(§20) In brief, 1ml of the tested sample (at each concentration) was combined with 1mL of 200mM
(§21) sodium phosphate buffer (pH 6.6) and 1mL of 1% potassium ferricyanide. The mixture was then
(§22) incubated at 50°C for 20 minutes, followed by the addition of 1mL of trichloroacetic acid (10%). After
(§23) centrifugation at 2000rpm for 10 minutes, the upper layer solution (2.5 mL) was mixed with 2.5 mL of double deionized water and 1mL of fresh ferric chloride (0.1%). The absorbance was measured at
(§24) 700nm against a blank prepared without the sample. Ascorbic acid was used at the same
(§25) concentrations as a standard. A high absorbance at 700nm indicates a higher reducing power in the
as §1, §2, §3, §4, §5, §6, §7, §8, §9, §10
(§26) The procedure for the 2,2'-azinobis-(3-ethylbenzothiazoline-6-sulfonic acid) (ABTS) assay
(§27) potassium persulfate solution (2.4 mM). The working solution was prepared by mixing the two stock
(§28) solutions in equal quantities and allowing them to react at room temperature in a dark place for 14
(§29) hours. The solution was then diluted by mixing 1 mL of ABTS solution with 60 mL of methanol to
(§30) was prepared for each assay. The tested samples (at each concentration) were allowed to react with 1
(§31) mL of the ABTS solution, and the absorbance was taken at 734 nm after 7 minutes using a
(§32) spectrophotometer. The ABTS scavenging capacities of the samples were compared with that of
(§33) ascorbic acid (at the same concentrations).

[6] = Iron-reducing power (IRP); details: equal concentrations (1000 µg/mL); mean ± SE, three replicates
[7] = test system: proteinase enzyme (trypsin); experiment: Proteinase enzyme inhibition (anti-inflammatory); type: biochemical; details: equal concentrations (1000 µg/mL); mean ± SE
[8] = Total antioxidant capacity (TAC), phosphomolybdenum method; details: equal concentrations (1000 µg/mL); mean ± SE, three replicates
Description: as §11
In vitro biological activities
as §12, §13, §14, §15, §16, §17, §18, §19, §20, §21, §22, §23, §24, §25, §1, §2, §3, §4, §5, §6, §7, §8, §9, §10, §26, §27, §28, §29, §30, §31, §32, §33

[9] = test system: α-amylase; experiment: α-Amylase inhibition (anti-diabetic); type: biochemical; details: equal concentrations (1000 µg/mL); mean ± SE

Chain of bovine serum albumin (BSA) (P02769 25-607): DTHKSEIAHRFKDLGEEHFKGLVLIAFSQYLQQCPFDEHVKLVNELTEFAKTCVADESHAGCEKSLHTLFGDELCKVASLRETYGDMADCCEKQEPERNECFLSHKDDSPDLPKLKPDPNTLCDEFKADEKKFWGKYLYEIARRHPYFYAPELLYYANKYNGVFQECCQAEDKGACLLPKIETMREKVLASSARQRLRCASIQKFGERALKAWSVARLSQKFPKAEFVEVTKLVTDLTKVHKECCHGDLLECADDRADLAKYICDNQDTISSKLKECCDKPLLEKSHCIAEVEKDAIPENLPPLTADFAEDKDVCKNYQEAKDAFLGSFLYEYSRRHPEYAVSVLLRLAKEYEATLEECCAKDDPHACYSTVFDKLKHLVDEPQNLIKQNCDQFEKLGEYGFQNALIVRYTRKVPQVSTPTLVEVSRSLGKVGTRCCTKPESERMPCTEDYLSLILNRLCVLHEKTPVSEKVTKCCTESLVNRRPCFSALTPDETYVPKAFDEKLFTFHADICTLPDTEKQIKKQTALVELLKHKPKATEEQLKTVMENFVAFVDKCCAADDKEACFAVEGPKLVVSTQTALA

## Cc1ccc(NC(=O)c2c(Nc3ccccc3)n[nH]c2/N=C/c2ccc(N3CCCCC3)cc2)cc1 [5b]
[1]
  Inhibition (%) Protein Denaturation: 7.83 ± 0.01%
[2]
  Inhibition (%) α-Glucosidase: 7.85 ± 0.01%
[3]
  inhibition at 1000 µg/mL: 12.28 ± 0.01%
[4]
  IC50: 59.8 ± 0.03 µM
[5]
  ABTS (%) inhibition: 22.03 ± 0.01%
[6]
  Iron-Reducing Power (IRP): 10.01 ± 0.02 µg/mL
[7]
  Inhibition (%) Proteinase: 6.81 ± 0.01%
[8]
  Total Antioxidant Capacity (TAC): 15.26 ± 0.06 mg Gallic Acid/g
[9]
  Inhibition (%) α-Amylase: 9.12 ± 0.01%

## O=C(Nc1ccc(Cl)cc1)c1c(Nc2ccccc2)n[nH]c1/N=C/c1ccc(N2CCCCC2)cc1 [5c]
[1]
  Inhibition (%) Protein Denaturation: 15.41 ± 0.02%
[2]
  Inhibition (%) α-Glucosidase: 15.43 ± 0.03%
[3]
  inhibition at 1000 µg/mL: 24.15 ± 0.01%
[4]
  IC50: 42.86 ± 0.02 µM
[5]
  ABTS (%) inhibition: 43.34 ± 0.03%
[6]
  Iron-Reducing Power (IRP): 19.68 ± 0.04 µg/mL
[7]
  Inhibition (%) Proteinase: 13.40 ± 0.02%
[8]
  Total Antioxidant Capacity (TAC): 30.01 ± 0.11 mg Gallic Acid/g
[9]
  Inhibition (%) α-Amylase: 17.94 ± 0.03%

## Cc1nn(-c2ccccc2)c(Cl)c1C=Nc1[nH]nc(Nc2ccccc2)c1C(=O)Nc1ccccc1 [6a]
[1]
  Inhibition (%) Protein Denaturation: 15.33 ± 0.02%
[2]
  Inhibition (%) α-Glucosidase: 15.35 ± 0.03%
[3]
  inhibition at 1000 µg/mL: 24.03 ± 0.01%
[4]
  IC50: 43.35 ± 0.02 µM
[5]
  ABTS (%) inhibition: 43.12 ± 0.03%
[6]
  Iron-Reducing Power (IRP): 19.58 ± 0.04 µg/mL
[7]
  Inhibition (%) Proteinase: 13.33 ± 0.02%
[8]
  Total Antioxidant Capacity (TAC): 29.86 ± 0.11 mg Gallic Acid/g
[9]
  Inhibition (%) α-Amylase: 17.85 ± 0.03%

## Cc1ccc(NC(=O)c2c(Nc3ccccc3)n[nH]c2N=Cc2c(C)nn(-c3ccccc3)c2Cl)cc1 [6b]
[1]
  Inhibition (%) Protein Denaturation: 17.94 ± 0.02%
[2]
  Inhibition (%) α-Glucosidase: 17.96 ± 0.03%
[3]
  inhibition at 1000 µg/mL: 28.11 ± 0.02%
[4]
  IC50: 36.02 ± 0.02 µM
[5]
  ABTS (%) inhibition: 50.45 ± 0.03%
[6]
  Iron-Reducing Power (IRP): 22.91 ± 0.04 µg/mL
[7]
  Inhibition (%) Proteinase: 15.60 ± 0.02%
[8]
  Total Antioxidant Capacity (TAC): 34.93 ± 0.13 mg Gallic Acid/g
[9]
  Inhibition (%) α-Amylase: 20.89 ± 0.03%

## Cc1nn(-c2ccccc2)c(Cl)c1C=Nc1[nH]nc(Nc2ccccc2)c1C(=O)Nc1ccc(Cl)cc1 [6c]
[1]
  Inhibition (%) Protein Denaturation: 17.97 ± 0.02%
[2]
  Inhibition (%) α-Glucosidase: 17.99 ± 0.03%
[3]
  inhibition at 1000 µg/mL: 28.16 ± 0.02%
[4]
  IC50: 34.58 ± 0.02 µM
[5]
  ABTS (%) inhibition: 50.54 ± 0.03%
[6]
  Iron-Reducing Power (IRP): 22.95 ± 0.05 µg/mL
[7]
  Inhibition (%) Proteinase: 15.62 ± 0.02%
[8]
  Total Antioxidant Capacity (TAC): 34.99 ± 0.13 mg Gallic Acid/g
[9]
  Inhibition (%) α-Amylase: 20.92 ± 0.03%

## COc1ccc(Nc2n[nH]c(N=Cc3c(C)nn(-c4ccccc4)c3Cl)c2C(=O)Nc2ccccc2)cc1 [6d]
[1]
  Inhibition (%) Protein Denaturation: 15.62 ± 0.02%
[2]
  Inhibition (%) α-Glucosidase: 15.64 ± 0.03%
[3]
  inhibition at 1000 µg/mL: 24.48 ± 0.01%
[4]
  IC50: 40.11 ± 0.02 µM
[5]
  ABTS (%) inhibition: 43.93 ± 0.03%
[6]
  Iron-Reducing Power (IRP): 19.95 ± 0.04 µg/mL
[7]
  Inhibition (%) Proteinase: 13.58 ± 0.02%
[8]
  Total Antioxidant Capacity (TAC): 30.42 ± 0.11 mg Gallic Acid/g
[9]
  Inhibition (%) α-Amylase: 18.19 ± 0.03%

## COc1ccc(Nc2n[nH]c(N=Cc3c(C)nn(-c4ccccc4)c3Cl)c2C(=O)Nc2ccc(C)cc2)cc1 [6e]
[1]
  Inhibition (%) Protein Denaturation: 15.67 ± 0.02%
[2]
  Inhibition (%) α-Glucosidase: 15.69 ± 0.03%
[3]
  inhibition at 1000 µg/mL: 24.56 ± 0.01%
[4]
  IC50: 38.94 ± 0.02 µM
[5]
  ABTS (%) inhibition: 44.08 ± 0.03%
[6]
  Iron-Reducing Power (IRP): 20.02 ± 0.04 µg/mL
[7]
  Inhibition (%) Proteinase: 13.63 ± 0.02%
[8]
  Total Antioxidant Capacity (TAC): 30.52 ± 0.11 mg Gallic Acid/g
[9]
  Inhibition (%) α-Amylase: 18.25 ± 0.03%

## C[C@H]1O[C@H](O[C@H]2[C@H](O)[C@@H](O)[C@@H](O[C@H]3[C@H](O)[C@@H](O)C(O)O[C@@H]3CO)O[C@@H]2CO)[C@H](O)[C@@H](O)[C@@H]1N[C@H]1C=C(CO)[C@@H](O)[C@H](O)[C@H]1O (stereo partly drawn) [Acarbose, reference compound]
[2]
  Inhibition (%) α-Glucosidase: 53.94 ± 0.01%
[9]
  Inhibition (%) α-Amylase: 76.58 ± 0.01%

## O=C1O[C@H]([C@@H](O)CO)C(O)=C1O [Ascorbic Acid, reference compound]
[4]
  IC50: 29.3 ± 0.01 µM
[5]
  ABTS (%) inhibition: 41.25 ± 0.01%
[6]
  Iron-Reducing Power (IRP): 71.85 ± 0.05 µg/mL
[8]
  Total Antioxidant Capacity (TAC): 79.10 ± 0.11 mg Gallic Acid/g
